RP-LC retention time data for 60 compounds are collected here from the METLIN SMRT retention time set (Domingo-Almenara et al. 2019).

The nature of this series: gradient 5% acetonitrile 3 min, to 50% in 2 min, to 85% in 15 min, held 3 min, 100 µL/min. To be noted: column: Zorbax Extend-C18 2.1 x 50 mm; eluents: water / acetonitrile, 0.1% formic acid. The essentials:
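Retention times of pure standards were taken from adduct peaks that were selected by computer and manually inspected. Over 3 months, mixtures of ~100 molecules were run by HPLC–quadrupole time-of-flight mass spectrometry in positive and negative ionization mode. The Zorbax Extend-C18 column (2.1 × 50 mm, 1.8 μm) ran at 100 μL/min in water and acetonitrile, each containing 0.1% formic acid, with 40 μL dead volume and 900 μL dwell volume.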
Consider `COc1ccc(CC(=O)N2CCC[C@@H]2C(=O)NCc2csc(-c3ccccc3)n2)c(Cl)c1`, for which the RP-LC retention time was 880 s.

`Cn1cc(S(=O)(=O)N2CCOCC2)cc1C(=O)Nc1ccccc1` displayed an RP-LC retention time of 801 s.

Regarding `COc1cccc(-c2nc(C3CCN(S(=O)(=O)c4ccc(F)c(C)c4)CC3)no2)c1`, the RP-LC retention time came out at 1150 s.

Compound `CCOCCCNC(=O)c1cc2n(n1)CCCN(Cc1ccc(Cl)cc1)C2=O` showed an RP-LC retention time of 797 s.

As to `Cn1cc(-c2nc(C(=O)Nc3cccc(F)c3)cs2)c2cccnc21`, the RP-LC retention time is 1020 s.

Regarding `CCS(=O)(=O)N1CC(=O)N(c2ccc(Cl)cc2)C(C)(C(=O)NCc2ccc(F)cc2)C1` (stereo not given), the RP-LC retention time is 840 s.

Consider `O=C(Nc1ccc2c(c1)OCO2)C(=O)c1c[nH]c2ccccc12`, for which the RP-LC retention time came out at 890 s.

Consider `Cc1ccc(-c2nc(C)cc(SCC(=O)Nc3ccccc3Br)n2)cc1`, for which the RP-LC retention time stood at 1290 s.

As to `Cc1nc2cccnc2n1CCN1CCN(C(=O)Nc2ccccc2Cl)CC1`, the RP-LC retention time is 584 s.

`Cc1ccc(-c2cc(NC(=O)Cc3ccccc3C)on2)s1` had an RP-LC retention time of 1030 s.

Turning to `Cc1sc2ccn(Cc3ccc(F)cc3)c(=O)c2c1C(=O)NCCN1CCCC1`, the RP-LC retention time was determined as 662 s.

As for `O=C(NCc1ccco1)C1CCCN(c2nnc3ccc(Cl)cn23)C1` (stereo not given), the RP-LC retention time is 687 s.

Compound `Cc1ccc(-c2nnc(-c3nn(C)c4c3CN(S(=O)(=O)c3ccc(CC(C)C)cc3)CC4)o2)cc1` gave an RP-LC retention time of 1230 s.

As for `COc1ccc(OC)c(NC(=O)C(=O)NCC2CCCO2)c1` (stereo not given), the RP-LC retention time came to 807 s.

As to `O=C(Nc1ccc(-n2cnc(C(=O)N3CCSCC3)c2)nc1)C1CC1`, the RP-LC retention time came out at 657 s.

For the compound `COc1ccc(NC(=O)Cn2ccnc2-c2ccnc(N3CCOCC3)c2)c(OC)c1`, the RP-LC retention time is 613 s.

In turn, `Cc1cccc(-n2c(=O)c3c(cc(C)n3C)n(CC(=O)Nc3cc(C)ccc3C)c2=O)c1` came in with an RP-LC retention time of 844 s.

Turning to `N#Cc1cccc(Cn2nc(-c3nc(-c4ccc(Cl)cc4)no3)ccc2=O)c1`, the RP-LC retention time worked out at 1100 s.

The compound `Cc1sc2cc(C(=O)NC3CC3)[nH]c2c1CN1CCCCC1` returned an RP-LC retention time of 596 s.

On to `CC(C)n1nnc2cc(C(=O)O)ccc21`, for which the RP-LC retention time is 687 s.

Compound `COCCc1noc(COC2CCN(C(=O)C3CCCO3)CC2)n1` (stereo not given) registered an RP-LC retention time of 618 s.

As to `Cc1cc(C(=O)NC2CC2)no1`, the RP-LC retention time was determined as 628 s.

`CCOc1ccc(-c2nc(C3CC(=O)N(c4ccc(F)c(Cl)c4)C3)no2)cc1OCC` (stereo not given): the RP-LC retention time was found to be 1150 s.

Regarding `CC(C)CNC(=O)Cc1cn(C)c2ncccc12`, the RP-LC retention time came out at 595 s.

For `CCOc1ccc(NC(=O)N2CCN(c3ccc(=O)n(-c4ccc(C)cc4)n3)CC2)cc1`, the RP-LC retention time was 802 s.

`CC(C)n1c(=O)sc2cc(S(=O)(=O)N3CCC(C(=O)NCCC4=CCCCC4)CC3)ccc21` yielded an RP-LC retention time of 1020 s.

For `O=C(Cc1csc(-n2cccc2)n1)NCc1nc(-c2ccccc2)no1`, the RP-LC retention time worked out at 821 s.

`O=c1[nH]c(-c2ccccc2)nc2sc(-c3ccccc3)cc12` showed an RP-LC retention time of 980 s.

Consider `O=C(NC1CCN(c2cc(-c3cccs3)[nH]n2)C1)c1ccc2[nH]ccc2c1` (stereo not given), for which the RP-LC retention time is 672 s.

With `O=C(Cc1ccsc1)NC1CCN(c2ccc(=O)n(CCOc3ccccc3)n2)C1` (stereo not given), the RP-LC retention time is 750 s.

Compound `O=S(=O)(NCc1nc(-c2cccc(-c3ccn[nH]3)c2)no1)c1ccc(F)cc1` showed an RP-LC retention time of 765 s.

Turning to `CCCN1CCN(c2cc(C(=O)O)c3cc(NS(=O)(=O)c4cc(C)c(C)cc4C)ccc3n2)CC1`, the RP-LC retention time worked out at 653 s.

The compound `CCN1CCN(CCNC(=O)CCCN2C(=O)CCn3nc(-c4cccn4C)cc32)CC1` yielded an RP-LC retention time of 575 s.

The compound `CC(C)CNC(=O)N1CCC(c2noc(-c3ccccc3)n2)C1` (stereo not given) showed an RP-LC retention time of 846 s.

`CCCn1cc(CCNC(=O)Nc2cc(F)c(F)c(F)c2)c2cccnc21` had an RP-LC retention time of 866 s.

For the compound `COc1ccc(-c2csc(Nc3ccccn3)n2)cc1OC`, the RP-LC retention time was found to be 761 s.

In turn, `CCCCN1C(=O)C(C)(C(=O)Nc2cc(C)ccc2C)Oc2cccnc21` (stereo not given) registered an RP-LC retention time of 1110 s.

The compound `Cc1ccc2[nH]cc(CCNC(=O)COc3ccccc3)c2c1` had an RP-LC retention time of 904 s.

In turn, `CC1(C(=O)NCc2ccccc2)Cn2cnc(C(=O)NCc3ccccc3Cl)c2C(=O)N1C1CC1` (stereo not given) registered an RP-LC retention time of 816 s.

Compound `CCN(CC)CCCC(C)Nc1cc(Cl)cc2nc3ccc(OC)cc3cc12` (stereo not given) came in with an RP-LC retention time of 609 s.

`Cc1ccc(NS(=O)(=O)c2cc(-c3nc(C)cs3)sc2C)c(C)c1` displayed an RP-LC retention time of 1090 s.

`CCn1ncn2cc(S(=O)(=O)Nc3ccccc3F)cc2c1=O` displayed an RP-LC retention time of 830 s.

`O=C(NC1CCCC1)N1CCN(c2nc3ccccc3n(Cc3ccccc3)c2=O)CC1` came in with an RP-LC retention time of 997 s.

Turning to `CCCN1C(=O)COc2ccc(-c3noc(Cc4ccc(NC(C)=O)cc4)n3)cc21`, the RP-LC retention time turned out to be 841 s.

`CCn1cc(-c2nc(CC(=O)Nc3ccc(F)cc3F)cs2)c2cccnc21` had an RP-LC retention time of 992 s.

`O=C(Nc1ccc(F)cc1F)c1ccc2ncsc2c1` registered an RP-LC retention time of 713 s.

As for `Cc1ccc(C)c(CNC(=O)C2CC(=O)N(c3ccc4oc(C)nc4c3)C2)c1` (stereo not given), the RP-LC retention time is 753 s.

`O=C(Cn1c(=O)c2cccn2c2ccc(F)cc21)NCCCN1CCCC1=O` came in with an RP-LC retention time of 647 s.

Consider `O=C(c1cc(-c2ccccc2)n[nH]1)N1CCC2(CC1)N=C(c1ccccc1)NO2`, for which the RP-LC retention time came to 785 s.

`Cc1cc(N2CCN(C(=O)c3ccc(Br)o3)CC2)nc(N2CCCCC2)n1` yielded an RP-LC retention time of 690 s.

In the case of `Fc1cccc(-c2nnc(Cc3nc(-c4cccc(Cl)c4)no3)o2)c1`, the RP-LC retention time was determined as 1070 s.

Consider `Cc1cccc(OCC(=O)N2CCN(c3cc(=O)n(C(C)C)c(=O)n3C(C)C)CC2)c1`, for which the RP-LC retention time came to 909 s.

Regarding `COc1ccc(CC(=O)NC(C(=O)Nc2nc3ccccc3[nH]2)C(C)C)cc1Cl` (stereo not given), the RP-LC retention time was found to be 733 s.

`CCCCNC(=O)C1Cc2cc(S(=O)(=O)N3CCCCC3)ccc2N1C(=O)CC` (stereo not given) yielded an RP-LC retention time of 885 s.

In turn, `COc1cccc(-c2noc(Cc3nnc(-c4ccc(Cl)cc4)o3)n2)c1OC` yielded an RP-LC retention time of 973 s.

`Cc1ccccc1NC(=O)N(C)CC1CCOC1` (stereo not given) displayed an RP-LC retention time of 704 s.

`Cc1nc(-c2cn(C(C)C)c3ncccc23)sc1C(=O)N1CCN(C(C)C)CC1`: the RP-LC retention time was determined as 622 s.

`Cc1nc([C@@H]2CN(C(=O)CCc3c(C)n[nH]c3C)C[C@H]2C(N)=O)n[nH]1` gave an RP-LC retention time of 523 s.

Turning to `O=C(Cn1nc2nc(N3CCCCCC3)ccn2c1=O)Nc1cc(F)cc(F)c1`, the RP-LC retention time was found to be 798 s.

For the compound `Cc1cccc(NC(=O)Cn2c(=O)n(-c3ccccc3)c(=O)c3c2cc(C)n3C)c1`, the RP-LC retention time worked out at 831 s.
